Data on 1 sequence can be found in patent US6071896A, “Suppression of thromboxane levels by percutaneous administration of aspirin” (Gundersen Clinic, Ltd., priority 1998, dated 2000).

For experiment [1], the system named is PGI2 formation in response to intravenous bradykinin. The experiment is described as follows: Urinary PGI-M excretion at rest and after bradykinin infusion, Example 3. The format is in vivo, human. The settings on record: 4 subjects; intravenous 100-800 ng/kg/min. The procedure: In an additional 4 subjects, we examined the increase in PGI2 formation in response to intravenous bradykinin prior to and following oral aspirin 75 mg or dermal aspirin 750 mg daily for 14 days. The protocol for bradykinin has been described previously [Clark, N.Engl.J.Med 325:1137 (1991)]. Volunteers were admitted after an overnight fast to the Clinical Research Center. Blood samples were obtained for serum TXB2 and the subject asked to void. Through a peripheral vein, 1 liter of normal saline was infused over 1 hour. After a further hour, bradykinin was infused in incremental doses of 100-800 ng/kg/min, each over 15 mm. The infusion was continued at the maximum tolerated dose for a total period of 2 hr. Blood pressure and heart rate were monitored continuously. Urine was collected in separate 2 hr aliquots prior to, during and following the bradykinin infusion.
^1 The excretion of TXM and PGIM before and following dermal aspirin
750 mg/day or oral aspirin 75 mg/day for 10 days. Urine samples were
collected over 2 hr before (rest) and following the administration of […]

Experiment [2] has the same test system. The settings on record: on average; cited from earlier work.

Ends that are not written are not given here.

For RPPGFSPFR [bradykinin], the “Increase in PGI-M excretion induced by bradykinin” value in experiment [1] is on record as 5.1±6 fold. Further, the “Increase in PGI2 biosynthesis by bradykinin, previous studies” value in experiment [2] is 2-6 fold.
